In general, IC50 refers to the concentration that gives 50% inhibition.

Counter-ions that a name gives are not always drawn. Like-named read-outs stand apart in the source and are kept apart here. A value given as a limit tells only on which side of the number the result lay.

Holding throughout (assay): biochemical
The target of assay [1] is T1, MMP-1 (Homo sapiens, UniProt P03956).
T1 construct: made in house; host or cells: transfected HT-1080 cells (provided by Dr. Harold Welgus, Washington University)
T1 sequence (P03956 100-469): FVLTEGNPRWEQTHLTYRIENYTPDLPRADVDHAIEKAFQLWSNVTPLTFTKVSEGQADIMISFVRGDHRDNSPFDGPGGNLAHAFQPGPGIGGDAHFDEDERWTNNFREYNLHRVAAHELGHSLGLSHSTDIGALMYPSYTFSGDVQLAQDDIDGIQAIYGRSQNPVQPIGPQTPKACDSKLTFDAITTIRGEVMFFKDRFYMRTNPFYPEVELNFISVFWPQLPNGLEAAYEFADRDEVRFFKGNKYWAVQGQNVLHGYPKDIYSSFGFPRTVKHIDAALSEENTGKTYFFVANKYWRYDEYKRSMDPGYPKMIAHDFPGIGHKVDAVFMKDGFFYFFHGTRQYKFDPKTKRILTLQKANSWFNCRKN
The following applies: read-out: MMP-1 IC50. The method, boiled down: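 APMA- or trypsin-activated enzymes were preincubated with inhibitor for 5 min at room temperature, then the fluorogenic substrate MCA-Pro-Leu-Gly-Leu-Dpa-Ala-Arg-NH2 was added to a final 4 μM.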

In assay [2] the target is T2, MMP-2 (Homo sapiens, UniProt P08253).
T2 construct: made in house; provided by Dr. Gregory Goldberg, Washington University
T2 sequence (P08253 110-660): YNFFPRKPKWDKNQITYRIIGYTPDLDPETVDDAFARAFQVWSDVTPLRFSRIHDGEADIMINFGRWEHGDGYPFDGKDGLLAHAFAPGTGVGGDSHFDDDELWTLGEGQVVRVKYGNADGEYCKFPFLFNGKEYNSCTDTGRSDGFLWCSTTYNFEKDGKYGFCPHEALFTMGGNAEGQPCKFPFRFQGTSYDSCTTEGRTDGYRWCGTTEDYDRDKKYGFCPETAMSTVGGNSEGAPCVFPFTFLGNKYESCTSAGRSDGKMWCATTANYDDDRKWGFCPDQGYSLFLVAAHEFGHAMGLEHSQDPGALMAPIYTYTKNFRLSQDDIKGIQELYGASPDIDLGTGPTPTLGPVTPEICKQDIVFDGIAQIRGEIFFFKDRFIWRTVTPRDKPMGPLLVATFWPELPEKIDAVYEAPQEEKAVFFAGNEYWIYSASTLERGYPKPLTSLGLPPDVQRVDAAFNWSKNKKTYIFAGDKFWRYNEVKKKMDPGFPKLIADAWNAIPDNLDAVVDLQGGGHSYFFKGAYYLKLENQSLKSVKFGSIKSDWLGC
The method, boiled down:
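APMA- or trypsin-activated human MMPs (MMP-1 from transfected HT-1080 cells, MMP-2 from transfected cells) preincubated with inhibitor in 1% DMSO at room temperature, then 4 μM MCA-Pro-Leu-Gly-Leu-Dpa-Ala-Arg-NH2 added in Tris/NaCl/CaCl2 buffer pH 7.5. IC50 from fluorescence reduction versus inhibitor concentration.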

The target of assay [3] is T3, MMP-13 (Homo sapiens, UniProt P45452).
T3 construct: made in house; host or cells: baculovirus / insect cells
Summed up:
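Assay buffer 100 mM Tris-HCl, 100 mM NaCl, 10 mM CaCl2, pH 7.5. Activated MMP + inhibitor, 5 min RT; then methoxycoumarin peptide substrate, 4 μM final. Readout fluorescence; IC50 calculated.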

[4] abbreviates: recombinant human MMP-1, MCA peptide substrate 4 μM, pH 7.5, room temperature.
[5] abbreviates: recombinant human MMP-2, MCA peptide substrate 4 μM, pH 7.5, room temperature, read-out: MMP-2 IC50.
Where [6] appears, read: recombinant human MMP-13, MCA peptide substrate 4 μM, pH 7.5, room temperature, read-out: MMP-13 IC50.

Take `COCCN1CCC(C(=O)NO)(S(=O)(=O)c2ccc(N3CCC(C(=O)N(C)CCc4ccccn4)CC3)cc2)CC1` [Example 235, 1-[4-[[4[(Hydroxyamino)carbonyl]-1-(2-methoxyethyl)-4-piperidinyl]sulfonyl]phenyl]-N-methyl-N-[2-(2-pyridinyl)ethyl]-4-piperidinecarboxamide, Dihydrochloride]: the 50% inhibitory concentration (IC50) is > 10000 nM in assay [1] (setting [4]), 5300 nM in assay [2] (setting [5]) and 235 nM in assay [3] (setting [6]).

In the case of `COCCN1CCC(C(=O)NO)(S(=O)(=O)c2ccc(N3CCC(C(=O)Nc4ccccc4)CC3)cc2)CC1` [Example 236, N-Hydroxy-1-(2-methoxyethyl)-4-[[4-[4-[(phenylamino)carbonyl]-1-piperidinyl]phenyl]-sulfonyl]-4-piperidinecarboxamide Monohydrochloride)], the IC50 in assay [1] (setting [4]) is > 10000 nM; in assay [2] (MMP-2 IC50 (nM)), 400 nM; in assay [3] (MMP-13 IC50 (nM), recombinant human MMP-13, MCA peptide substrate 4 μM, pH 7.5, room temperature), 9 nM.

As to `COCCN1CCC(C(=O)NO)(S(=O)(=O)c2ccc(N3CCC(C(=O)NCCCc4ccccc4)CC3)cc2)CC1` [Example 237, N-Hydroxy-1-(2-methoxyethyl)-4-[[4-[4-[[(3-phenylpropyl)amino]carbonyl]-1-piperidinyl]-phenyl]sulfonyl]-4-piperidinecarboxamide, Monohydrochloride], the figures for the IC50 in assay [1] (setting [4]), in assay [2] (setting [5]) and in assay [3] (setting [6]) were > 10000 nM, 1900 nM and 13 nM, respectively.

Consider `C[C@@H]1C[C@H](C)CN(C(=O)C2CCN(c3ccc(S(=O)(=O)C4(C(=O)NO)CCN(C(=O)OC(C)(C)C)CC4)cc3)CC2)C1` [Example 241, rel-1,1-Dimethylethyl 4-[[4-[4-[[(3R,5S)-3,5-Dimethyl-1-piperidinyl]carbonyl]-1-piperidinyl]-phenyl]sulfonyl]-4-[(hydroxyamino)carbonyl]-1-piperidinecarboxylate], for which the IC50 is > 10000 nM in assay [1] (setting [4]), > 10000 nM in assay [2] (setting [5]) and 4.8 nM in assay [3] (setting [6]).

`COCCN1CCC(C(=O)NO)(S(=O)(=O)c2ccc(N3CCC(C(=O)NC4Cc5ccccc5C4)CC3)cc2)CC1` [Example 242, 4-[[4-[4-[[(2,3-Dihydro-1H-inden-2-yl)amino]carbonyl]-1-piperidinyl]phenyl]sulfonyl]-N-hydroxy-1-(2-methoxyethyl)-4-piperidinecarboxamide, Monohydrochloride]: the figures for the IC50 in assay [1] (setting [4]), in assay [2] (setting [5]) and in assay [3] (setting [6]) were > 10000 nM, 1500 nM and 42.5 nM, respectively.

Regarding `O=C(Nc1ccccc1)C1CCN(c2ccc(S(=O)(=O)C3(C(=O)NO)CCN(C4CC4)CC3)cc2)CC1` [Example 243, 1-Cyclopropyl-N-hydroxy-4-[[4-[4-[(phenylamino)carbonyl]-1-piperidinyl]phenyl]sulfonyl]-4-piperidinecarboxamide, Monohydrochloride], the figures for the IC50 in assay [1] (setting [4]), in assay [2] (setting [5]) and in assay [3] (setting [6]) were > 10000 nM, 420 nM and 11.3 nM, respectively.

On to `COCCN1CCC(C(=O)NO)(S(=O)(=O)c2ccc(N3CCC(C(=O)N(C)c4ccccc4)CC3)cc2)CC1` [Example 244, 1-[4-[[4-[(Hydroxyamino)carbonyl]-1-(2-methoxyethyl)-4-piperidinyl]-sulfonyl]phenyl]-N-methyl-N-phenyl-4-piperidinecarboxamide, Monohydrate], for which the IC50 is > 10000 nM in assay [1] (setting [4]), 4400 nM in assay [2] (setting [5]) and 67.4 nM in assay [3] (setting [6]).

As to `CC(=O)N1CCC(C(=O)NO)(S(=O)(=O)c2ccc(N3CCC(C(=O)Nc4ccccc4)CC3)cc2)CC1` [Example 245, 1-Acetyl-N-hydroxy-4-[[4-[4-[(phenylamino)carbonyl]-1-piperidinyl]phenyl]sulfonyl]-4-piperidinecarboxamide], the IC50 in assay [1] (setting [4]) was > 10000 nM; in assay [2] (setting [5]), 800 nM; in assay [3] (setting [6]), 20 nM.

Turning to `COCCN1CCC(C(=O)NO)(S(=O)(=O)c2ccc(N3CCC(C(=O)N4CCc5ccccc54)CC3)cc2)CC1` [Example 246, 4-[[4-[4-[(2,3-Dihydro-1H-indol-1-yl)carbonyl]-1-piperidinyl]-phenyl]sulfonyl]-N-hydroxy-1-(2-methoxyethyl)-4-piperidinecarboxamide, Monohydrate], the IC50 was > 10000 nM in assay [1] (setting [4]), 2700 nM in assay [2] (setting [5]) and 32.7 nM in assay [3] (setting [6]).

Regarding `COCCN1CCC(C(=O)NO)(S(=O)(=O)c2ccc(N3CCC(C(=O)NCc4ccccc4)CC3)cc2)CC1` [Example 247, N-Hydroxy-1-(2-methoxyethyl)-4-[[4-[4-[[(phenylmethyl)amino]carbonyl]-1-piperidinyl]phenyl]-sulfonyl]-4-piperidinecarboxamide, Monohydrochloride], the IC50 in assay [1] (setting [4]) was > 10000 nM; in assay [2] (setting [5]), 1600 nM; in assay [3] (setting [6]) it was 34.5 nM.

For the compound `COCCN1CCC(C(=O)NO)(S(=O)(=O)c2ccc(N3CCC(C(=O)Nc4ccc(OC(F)(F)F)cc4)CC3)cc2)CC1` [Example 248, N-Hydroxy-1-(2-methoxyethyl)-4-[[4-[4-[[[4-(trifluoromethoxy)phenyl]amino]carbonyl]-1-piperidinyl]-phenyl]sulfonyl]-4-piperidinecarboxamide, Monohydrochloride], the IC50 in assay [1] (setting [4]) was > 10000 nM; in assay [2] (setting [5]), 270 nM; in assay [3] (setting [6]), 2.29 nM.

With `COCCN1CCC(C(=O)NO)(S(=O)(=O)c2ccc(N3CCC(C(=O)Nc4cccc(OC(F)(F)F)c4)CC3)cc2)CC1` [Example 249, N-Hydroxy-1-(2-methoxyethyl)-4-[[4-[4-[[[3-(trifluoromethoxy)phenyl]amino]carbonyl]-1-piperidinyl]phenyl]sulfonyl]-4-piperidinecarboxamide, Monohydrochloride], the IC50 in assay [1] (setting [4]) is > 10000 nM; in assay [2] (setting [5]), 235 nM; in assay [3] (setting [6]) it was 13 nM.

For the compound `O=C(NO)C1(S(=O)(=O)c2ccc(Oc3ccc(OC(F)(F)F)cc3)cc2)CCN(CCn2ccnc2)CC1` [Example 261, N-Hydroxy-1-[2-(1H-imidazol-1-yl)ethyl]-4-[[4-[4-(trifluoromethoxy)phenoxy]phenyl]sulfonyl]-4-piperidinecarboxamide, Dihydrochloride], the values for the IC50 in assay [1] (setting [4]), in assay [2] (setting [5]) and in assay [3] (setting [6]) were 3700 nM, < 0.1 nM and < 0.1 nM, respectively.

In the case of `COCCN1CCC(C(=O)NO)(S(=O)(=O)c2ccc(Oc3ccc(-n4cncn4)cc3)cc2)CC1` [Example 262, N-Hydroxy-1-(2-methoxyethyl)-4-[[4-[4-(1H-1,2,4-triazol-1-yl)phenoxy]phenyl]sulfonyl]-4-piperidinecarboxamide Trihydrochloride], the IC50 is > 10000 nM in assay [1] (setting [4]), 0.9 nM in assay [2] (setting [5]) and 1.5 nM in assay [3] (setting [6]).

On to `O=C(NO)C1(S(=O)(=O)c2ccc(Oc3ccc(OC(F)(F)F)cc3)cc2)CCN(CCCN2CCOCC2)CC1` [Example 264, N-Hydroxy-1-[3-(4-morpholinyl)propyl]-4-[[4-[4-(trifluoromethoxy)phenoxy]phenyl]sulfonyl]-4-piperidinecarboxamide Dihydrochloride], for which the IC50 in assay [1] (setting [4]) is 4500 nM; in assay [2] (setting [5]), < 0.1 nM; in assay [3] (setting [6]) it was 0.2 nM.

For `CS(=O)(=O)N1CCC(C(=O)NO)(S(=O)(=O)c2ccc(Oc3ccc(OC(F)(F)F)cc3)cc2)CC1` [Example 273, N-Hydroxy-1-(methylsulfonyl)-4-[[4-[4-sulfonyl]-(trifluoromethoxy)phenoxy]phenyl]-4-piperidinecarboxamide], the IC50 in assay [1] (setting [4]) is > 10000 nM; in assay [2] (setting [5]) it was 0.1 nM; in assay [3] (setting [6]) it was 0.3 nM.

Regarding `CC1CC(C)CN(C(=O)C2CCN(c3ccc(S(=O)(=O)C4(C(=O)NO)CCN(C(=O)OCC5c6ccccc6-c6ccccc65)CC4)cc3)CC2)C1` (stereo not drawn) [Example 274], the IC50 in assay [1] was > 10000 nM; in assay [2] (read-out: MMP-2 IC50), > 10000 nM; in assay [3] (read-out: MMP-13 IC50), 160 nM.

With `C[C@H]1C[C@H](C)CN(C(=O)C2CCN(c3ccc(S(=O)(=O)C4(C(=O)NO)CCN(C(=O)CCl)CC4)cc3)CC2)C1` [Example 275], the figures for the IC50 in assay [1], in assay [2] (read-out: MMP-2 IC50) and in assay [3] (read-out: MMP-13 IC50) were > 10000 nM, > 10000 nM and 70 nM, respectively.

These data come from US6750228B1, “Aromatic sulfone hydroxamic acid metalloprotease inhibitor” (priority 1997, dated 2004).
